This is an account of results in patent US20250332105A1, “AMORPHOUS SOLID DISPERSION COMPRISING (S)-1-(1-ACRYLOYLPYRROLIDIN-3-YL)-3-((3,5-DIMETHOXYPHENYL)ETHYNYL)-5-(METHYLAMINO)-1H-PYRAZOLE-4-CARBOXAMIDE” (BEIJING INNOCARE PHARMA TECH CO., LTD., priority 2024, published 2025).

Converted amounts (≈) assume the structure as drawn.

Data set [1] in a line: Stability assessment of ASD (XRPD, DSC, solubility, relative substances after storage). Format: physicochemical. The conditions noted are these: no storage (drug substance). An excerpt: Capped brown glass vials each containing an ASD sample (HPMCAS-10-SDD and PVPVA-10-HME) were placed inside stability chambers.
Data set [2] is described as follows: Equilibrium solubility in water. Format: physicochemical. The conditions noted are these: after equilibrium in water at room temperature for 24 hours.
The nature of data set [3]: In vivo PK, oral administration in beagle dogs. The conditions noted are these: dog, blood, fasted beagle dogs, 3 mg/kg, Type A as 0.5% MC suspension, HPMCAS-10-SDD as tablet. As for the experimental part: Type A and HPMCAS-10-SDD were formulated with excipients, respectively. The PK properties of two formulations administered orally in beagle dogs were evaluated. Each formulation was tested in three dogs, each weighed 8˜12 kg.
A formulation was prepared by wet granulation. Firstly, mannitol, pregelatinized starch, sodium carboxymethyl starch and sodium dodecyl sulfate of different amounts were mixed evenly according to Table 8. Secondly, Type A and Povidone K30 were added into an appropriate amount of absolute alcohol, stirred, and mixed as adhesive. Finally, the adhesive was added to the evenly mixed excipients, followed by granulation, drying, addition of magnesium stearate, and mixing into a powder.
The above formulation was added to 0.5% methylcellulose (MC) to give a suspension containing 0.6 mg/mL of Compound I. The suspension was then orally administered to fasted beagle dogs at 5 mL/kg, which was equivalent to a dose of 3 mg/kg. Blood samples were collected at 0.25, 0.5, 1, 2, 4, 8 and 24 hours post dose. Concentrations of Compound I were quantified by LC-MS/MS analysis using an API-4500 mass spectrometer.
A formulation was prepared by dry granulation. […]
Four tablets were orally administered to fasted beagle dogs at a dose of 3 mg/kg. […] Concentrations of Compound I were quantified by LC-MS/MS analysis.

Data set [4] can be described thus: Glass transition temperature determination by DSC. Format: physicochemical. The note with it: 0 to 210° C. at 10° C./min. As for the experimental part: Type A: Accurately weighted Type A sample (2˜5 mg) was placed in a DSC pan which was then sealed and placed in TA Instruments Q2000. The pan was heated from room temperature to 230° C. at a rate of 20° C./min and after 5 min, rapidly cooled to 0° C. at a rate of 50° C./min. After another 5 min, the DSC analysis was carried out between 0 to 210° C. at a rate of 10° C./min.
ASD: Accurately weighted ASD sample (2˜5 mg) was placed in a DSC pan which was then sealed and placed in TA Instruments Q2000. The pan was heated from room temperature to 135° C. at a rate of 20° C./min and after 5 minutes, rapidly cooled to 0° C. at a rate of 50° C./min. After another 5 min, the DSC analysis was carried out between 0 to 210° C. at a rate of 10° C./min (FIG. 2 and FIG. 3).

Data set [5] in a line: Solubility profiles in pH 6.8 phosphate buffer. Format: physicochemical. The note with it: aqueous buffer, thermodynamic from solid, 37° C., 150 rpm, n = 3. On the procedure:
Phosphate buffer (pH 6.8): 3.40 g of potassium dihydrogen phosphate and 0.45 g of sodium hydroxide were dissolved in 500 mL of water.
Type A: About 8.0 mg of Type A sample was added to 20 mL of the phosphate buffer (pH 6.8) in a 30-mL glass vial. The vial was capped, placed in a shaker, and kept shaking with 150 rpm at 37° C. At indicated time intervals (10, 30, 60, 120, 240 min), a fraction of the suspension was removed and filtered through a 0.45-μm filter by discarding the first part of the filtrate. The filtrate was diluted and then analyzed by HPLC.
ASD: An appropriate amount of ASD (about 3.0 mg of Compound I) was added to 7.5 mL of the phosphate buffer (pH 6.8) in a 30-mL glass vial. The vial was capped, placed in a shaker, and kept shaking with 150 rpm at 37° C. At indicated time intervals (10, 30, 60, 120, 240 min), a fraction of the suspension was removed and centrifuged at 12,000 rpm for 5 minutes to give a clear solution that was then analyzed by HPLC.

With `C=CC(=O)N1CC[C@H](n2nc(C#Cc3cc(OC)cc(OC)c3)c(C(N)=O)c2NC)C1` [Type A, (S)-1-(1-acryloylpyrrolidin-3-yl)-3-((3,5-dimethoxyphenyl)ethynyl)-5-(methylamino)-1H-pyrazole-4-carboxamide], the “Total Impurities” value in data set [1] is 0.19%. In data set [2], this compound came in with a solubility of 6.4 µg/mL (≈ 15.1 µM). In data set [3], this compound displayed an exposure AUC(0-t) of 1250 ng·h/mL and a Cmax of 270 ng/mL. For the same compound, the Tg in data set [4] was 70.1 °C. This compound came in with a solubility at 10 min in data set [5] (10 min) of 4.88 µg/mL (≈ 11.5 µM). This compound returned a solubility at 30 min in data set [5] (30 min) of 7.91 µg/mL (≈ 18.7 µM). In addition, the concentration in solution in data set [5] (60 min) (solubility at 60 min) came to 7.81 µg/mL (≈ 18.4 µM). Further, in data set [5] (120 min), the concentration in solution (solubility at 120 min) was 7.62 µg/mL (≈ 18 µM). The same compound yielded a solubility at 240 min in data set [5] (240 min) of 8.47 µg/mL (≈ 20 µM).
